Results on 24 molecules are retold here after patent US5622962A, “5α-reductase inhibitors” (priority 1995, dated 1997).

Where two headings read alike, the source gives them in different places.

Assay [1] addresses T1, Type I 5α-Reductase from Human Scalp (Homo sapiens, UniProt P18405).
T1 construct: Scalp punch biopsies from graft recipient sites were obtained from human hair transplant procedures; from tissue; host or cells: human scalp punch biopsies (hair transplant graft recipient sites), homogenate, 100,000×g pellet
T1 sequence (P18405 1-259): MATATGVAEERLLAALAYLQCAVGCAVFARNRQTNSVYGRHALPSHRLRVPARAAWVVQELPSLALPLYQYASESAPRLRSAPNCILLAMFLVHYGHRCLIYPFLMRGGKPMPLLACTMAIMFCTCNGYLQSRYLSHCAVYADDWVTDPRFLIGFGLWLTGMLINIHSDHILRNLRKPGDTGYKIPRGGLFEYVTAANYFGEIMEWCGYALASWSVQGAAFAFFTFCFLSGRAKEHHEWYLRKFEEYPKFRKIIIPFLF
Put plainly: Human Type I 5α-reductase assay (conversion of [3H]-testosterone to 5α-reduced metabolites). The class given is biochemical.

Assay [2] addresses T2, Type II 5α-Reductase from Human Prostate (Homo sapiens, UniProt P31213).
T2 construct: The same procedure as above was used for preparations using tissue from prostate surgery; from tissue; host or cells: human prostate tissue from surgery, homogenate, 100,000×g pellet
T2 sequence (P31213 1-254): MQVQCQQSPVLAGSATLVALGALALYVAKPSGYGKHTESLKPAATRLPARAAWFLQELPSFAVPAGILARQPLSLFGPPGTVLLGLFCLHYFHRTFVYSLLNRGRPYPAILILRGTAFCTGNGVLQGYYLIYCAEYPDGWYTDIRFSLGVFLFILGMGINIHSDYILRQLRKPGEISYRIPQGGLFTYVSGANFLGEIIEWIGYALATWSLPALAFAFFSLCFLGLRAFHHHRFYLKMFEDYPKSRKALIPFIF
Put plainly: Human Type II 5α-reductase assay (conversion of [3H]-testosterone to 5α-reduced metabolites). The class given is biochemical.

Where [3] appears, read: pH 7.5, 0.3 μM, 50 nM [3H]-testosterone, pH 7.5, 25°, 180 min, compared to control reaction mixtures, read-out: percent inhibition of Type I AR.
Where [4] appears, read: pH 5.5, 0.3 μM, sodium acetate pH 5.5, 25°, 30 min, compared to control reaction mixtures, read-out: percent inhibition of Type II AR.

For `CN1C(=O)CC[C@]2(C)c3ccc(-c4cnccn4)cc3CC[C@@H]12` [Example 253, (+)-(4aR)-(10bR)-4-methyl-8-(2-pyrazinyl)-10b-methyl-1,2,3,4,4a,5,6,10b-octahydrobenzo[f]quinolin-3-one], the inhibition at 0.3 µM in assay [1] (setting [3]) amounted to 5%; in assay [2] (setting [4]), 32%.

For the molecule `CN1C(=O)CC[C@]2(C)c3ccc(-c4ncccn4)cc3CC[C@@H]12` [Example 254, (+)-(4aR)-(10bR)-4-methyl-8-(2-pyrimidinyl)-10b-methyl-1,2,3,4,4a,5,6,10b-octahydrobenzo[f]quinolin-3-one], the inhibition at 0.3 µM in assay [1] (setting [3]) is 37%; in assay [2] (setting [4]), 28%.

On to `CN1C(=O)CC[C@]2(C)c3ccc(-c4cnc5ccccc5n4)cc3CC[C@@H]12` [Example 255, (+)-(4aR)-(10bR)-4-methyl-8-(2-quinoxalinyl)-10b-methyl-1,2,3,4,4a,5,6,10b-octahydrobenzo[f]quinolin-3-one], for which the inhibition at 0.3 µM came out at 71% in assay [1] (setting [3]) and 37% in assay [2] (setting [4]).

On to `CN1C(=O)CC[C@]2(C)c3ccc(-c4nc5ccccc5[nH]4)cc3CC[C@@H]12` [Example 256, (+)-(4aR)-(10bR)-4-methyl-8-(2-benzimidazolyl)-10b-methyl-1,2,3,4,4a,5,6,10b-octahydrobenzo[f]quinolin-3-one], for which the inhibition at 0.3 µM was found to be 38% in assay [1] (setting [3]) and 18% in assay [2] (setting [4]).

Regarding `CN1C(=O)CC[C@]2(C)c3ccc(-c4n[nH]c5ccccc45)cc3CC[C@@H]12` [Example 257, (+)-(4aR)-(10bR)-4-methyl-8-(3-indazolyl)-10b-methyl-1,2,3,4,4a,5,6,10b-octahydrobenzo[f]quinolin-3-one], the inhibition at 0.3 µM in assay [1] (setting [3]) stood at 36%; in assay [2] (setting [4]), 58%.

`CN1C(=O)CC[C@]2(C)c3ccc(-c4nnnn4-c4ccccc4)cc3CC[C@@H]12` [Example 258, (+)-(4aR)-(10bR)-4-methyl-8-(2-[3-phenyl]tetrazolyl)-10b-methyl-1,2,3,4,4a,5,6,10b-octahydrobenzo[f]quinolin-3-one]: the inhibition at 0.3 µM in assay [1] (setting [3]) is 27%; in assay [2] (setting [4]) it was 16%.

In the case of `CN1C(=O)CC[C@]2(C)c3ccc(-c4ccc(C(F)(F)F)cn4)cc3CC[C@@H]12` [Example 259, (+)-(4aR)-(10bR)-4-methyl-8-(2-[5-trifluoromethyl]pyridinyl)-10b-methyl-1,2,3,4,4a,5,6,10b-octahydrobenzo[f]quinolin-3-one], the results for the inhibition at 0.3 µM in assay [1] (setting [3]) and in assay [2] (setting [4]) were 31% and 14%, respectively.

Turning to `CN1C(=O)CC[C@]2(C)c3ccc(-c4nc5c(ccc6ccccc65)s4)cc3CC[C@@H]12` [Example 260, (+)-(4aR)-(10bR)-4-methyl-8-(2-naphtho<1,2-d>thiazolyl)-10b-methyl-1,2,3,4,4a,5,6,10b-octahydrobenzo[f]quinolin-3-one], the figures for the inhibition at 0.3 µM in assay [1] (setting [3]) and in assay [2] (setting [4]) were 84% and 40%, respectively.

As to `CN1C(=O)CC[C@]2(C)c3ccc(-c4nc5c(F)cccc5s4)cc3CC[C@@H]12` [Example 261, (+)-(4aR)-(10bR)-4-methyl-8-(2-[4-fluoro]benzothiazolyl)-10b-methyl-1,2,3,4,4a,5,6,10b-octahydrobenzo[f]quinolin-3-one], the inhibition at 0.3 µM in assay [1] (setting [3]) came to 86%; in assay [2] (setting [4]) it was 49%.

On to `CN1C(=O)CC[C@]2(C)c3ccc(-c4nc5c(Cl)cccc5s4)cc3CC[C@@H]12` [Example 262, (+)-(4aR)-(10bR)-4-methyl-8-(2-[4-chloro]benzothiazolyl)-10b-methyl-1,2,3,4,4a,5,6,10b-octahydrobenzo[f]quinolin-3-one], for which the inhibition at 0.3 µM came out at 91% in assay [1] (setting [3]) and 41% in assay [2] (setting [4]).

Consider `CN1C(=O)CC[C@]2(C)c3ccc(-c4nc5cc(Cl)c(Cl)cc5s4)cc3CC[C@@H]12` [Example 263, (+)-(4aR)-(10bR)-4-methyl-8-(2-[5,6-dichloro]benzothiazolyl)-10b-methyl-1,2,3,4,4a,5,6,10b-octahydrobenzo[f]quinolin-3-one], for which the values for the inhibition at 0.3 µM in assay [1] (setting [3]) and in assay [2] (setting [4]) were 56% and 47%, respectively.

With `CC(C)c1cccc2sc(-c3ccc4c(c3)CC[C@H]3N(C)C(=O)CC[C@]43C)nc12` [Example 264, (+)-(4aR)-(10bR)-4-methyl-8-(2-[4-isopropyl]benzothiazolyl)-10b-methyl-1,2,3,4,4a,5,6,10b-octahydrobenzo[f]quinolin-3-one], the inhibition at 0.3 µM amounted to 90% in assay [1] (setting [3]) and 45% in assay [2] (setting [4]).

Consider `CN1C(=O)CC[C@]2(C)c3ccc(-c4nc5ccc(Cl)cc5s4)cc3CC[C@@H]12` [Example 265, (+)-(4aR)-(10bR)-4-methyl-8-(2-[6-chloro]benzothiazolyl)-10b-methyl-1,2,3,4,4a,5,6,10b-octahydrobenzo[f]quinolin-3-one], for which the values for the inhibition at 0.3 µM in assay [1] (setting [3]) and in assay [2] (setting [4]) were 78% and 40%, respectively.

For `CN1C(=O)CC[C@]2(C)c3ccc(Oc4ccc5ccccc5n4)cc3CC[C@@H]12` [Example 266, (+)-(4aR)-(10bR)-4-methyl-8-(2-quinolinyloxy)-10b-methyl-1,2,3,4,4a,5,6,10b-octahydrobenzo[f]quinolin-3-one], the inhibition at 0.3 µM was found to be 57% in assay [1] (setting [3]) and 44% in assay [2] (setting [4]).

Consider `CN1C(=O)CC[C@]2(C)c3ccc(NC(=O)c4ccccc4)cc3CC[C@@H]12` [Example 267, (+)-(4aR)-(10bR)-4,10b-dimethyl-8-benzoylamino-1,2,3,4,4a,-5,6,10b-octahydrobenzo[f]quinolin-3-one], for which the inhibition at 0.3 µM in assay [1] (setting [3]) stood at 34%; in assay [2] (setting [4]) it was 51%.

`CN1C(=O)CC[C@]2(C)c3ccc(NC(=O)c4ccc([N+](=O)[O-])cc4)cc3CC[C@@H]12` [Example 269, (4aR)-(10bR)-4,10b-dimethyl-8-(4-nitrobenzoylamino)-1,2,3,4,4a,5,6,10b-octahydrobenzo[f]quinolin-3-one]: the inhibition at 0.3 µM stood at 8% in assay [1] (setting [3]) and 17% in assay [2] (setting [4]).

Take `CN1C(=O)CC[C@]2(C)c3ccc(NC(=O)c4cccc(N)c4)cc3CC[C@@H]12` [Example 270, (4aR)-(10bR)-4,10b-dimethyl-8-(3-aminobenzoylamino)-1,2,3,4,4a,5,6,10b-octahydrobenzo[f]quinolin-3-one]: the inhibition at 0.3 µM turned out to be 18% in assay [1] (setting [3]) and 13% in assay [2] (setting [4]).

In the case of `CN1C(=O)CC[C@]2(C)c3ccc(-c4cccc(NC(c5ccccc5)c5ccccc5)c4)cc3CC[C@@H]12` [Example 272, (+)-(4aR)-(10bR)-4-methyl-8-(3-diphenylmethylaminophenyl)-10b-methyl-1,2,3,4,4a,5,6,10b-octahydrobenzo[f]quinolin-3-one], the inhibition at 0.3 µM in assay [1] (setting [3]) was 86%; in assay [2] (setting [4]), 11%.

Regarding `CN1C(=O)CC[C@]2(C)c3ccc(-c4cccc(NC(=O)C(C)(C)C)c4)cc3CC[C@@H]12` [Example 274, (+)-(4aR)-(10bR)-4-methyl-8-(3-[pivaloylamino]phenyl)-10b-methyl-1,2,3,4,4a,5,6,10b-octahydrobenzo[f]quinolin-3-one], the inhibition at 0.3 µM in assay [1] (setting [3]) came to 34%; in assay [2] (setting [4]) it was 32%.

Take `CN1C(=O)CC[C@]2(C)c3ccc(CCCc4ccccc4)cc3CC[C@@H]12` [Example 275, (+)-(4aR)-(10bR)-4-methyl-8-(3-phenylpropyl)-10b-methyl-1,2,3,4,4a,5,6,10b-octahydrobenzo[f]quinolin-3-one]: the inhibition at 0.3 µM in assay [1] (setting [3]) is 75%; in assay [2] (setting [4]), 44%.

`CN1C(=O)CC[C@]2(C)c3ccc(CCc4ccc5ccccc5c4)cc3CC[C@@H]12` [Example 276, (+)-(4aR)-(10bR)-4-methyl-8-(2-[2-naphthyl]ethyl)-10b-methyl-1,2,3,4,4a,5,6,10b-octahydrobenzo[f]quinolin-3-one]: the results for the inhibition at 0.3 µM in assay [1] (setting [3]) and in assay [2] (setting [4]) were 92% and 33%, respectively.

Turning to `CN1C(=O)CC[C@]2(C)c3ccc(CC(=O)Nc4ccccc4)cc3CC[C@@H]12` [Example 277, (4aR)-(10bR)-4,10b-dimethyl-8-phenylaminocarbonylmethyl-1,2,3,4,4a,5,6,10b-octahydrobenzo[f]quinolin-3-one], the inhibition at 0.3 µM in assay [1] (setting [3]) turned out to be 42%; in assay [2] (setting [4]), 40%.

As to `CN1C(=O)CC[C@]2(C)c3ccc(/C=C/c4ccccc4)cc3CC[C@@H]12` [Example 279, (4aR)-(10bR)-4,10b-dimethyl-8-(2-phenylethenyl)-1,2,3,4,4a,5,6,10b-octahydrobenzo[f]quinolin-3-one], the inhibition at 0.3 µM in assay [1] (pH 7.5, read-out: percent inhibition of Type I AR) was 85%; in assay [2] (pH 5.5, read-out: percent inhibition of Type II AR), 60%.

Turning to `CN1C(=O)CC[C@]2(C)c3ccc(CCc4ccccc4)cc3CC[C@@H]12` [Example 280, (4aR)-(10bR)-4,10b-dimethyl-8-(2-phenylethyl)-1,2,3,4,4a,5,6,10b-octahydrobenzo[f]quinolin-3-one], the “percent inhibition of Type I AR” value in assay [1] (0.3 μM, 50 nM [3H]-testosterone, pH 7.5, 25°, 180 min, compared to control reaction mixtures) is recorded as 100%. The inhibition at 0.3 µM was found to be 97% in assay [1] (setting [3]) and 33% in assay [2] (setting [4]).

Usually inhibition stands for the percentage by which the read-out fell short of the control.
